Test system: spontaneously hypertensive rats (SHR)
Experiment: Mean arterial blood pressure (MABP) and heart rate recording in conscious, unrestrained SHR after acute oral administration
Type: in vivo, rat
Conditions: 1 hour (FIG. 2)
Procedure: RB150, the ACEI, enalapril (supplied from Merck Sharp and Dohme research Lab), and the ARB, valsartan (Sigma-Aldrich), were dissolved in sterile saline and adjusted to pH 7.4 for in vivo administration.
Male spontaneously hypertensive rats (SHR), weighing 250 to 350 g, were obtained from Charles River Laboratories (L'Arbresle, France) and animals were kept under artificial light (12-hours light/12-hours dark cycle) with a normal standard diet and water given ad libitum. The experiments were conducted according to the National Institutes of Health Guide for the Care and Use of Laboratory Animals.
Twelve weeks male SHR were anesthetized with pentobarbital sodium (60 mg/kg, i.p, Centravet). Catheters were implanted in the femoral artery. The femoral arterial catheter was brought under the skin and emerged at the nape of the neck. After surgery, each rat was given an intraperitoneal injection of 0.1 mL of penicillin-streptomycin (50,000 units/mL; Sigma) and allowed to recover for at least 24 hours before the experiment. […] Each experiment was monitored by using a COBE CDX III pressure transducer (Phymep, Paris, France) connected to the MacLab system (Phymep) consisting of a MacLab hardware unit and chart software running on a Macintosh computer. […]

Compound	BP decrease 1 hour after drug administration (RB150 alone 150 mg/kg po)	BP decrease 1 hour after drug administration (enalapril alone 3 mg/kg po)
N[C@@H](CCS(=O)(=O)O)CSSC[C@@H](N)CCS(=O)(=O)O [RB150, (3S,3S′) 4,4′-disulfanediylbis(3-aminobutane 1-sulfonic acid)]	did not induce any significant BP decrease	–
CCOC(=O)[C@H](CCc1ccccc1)N[C@@H](C)C(=O)N1CCC[C@H]1C(=O)O [enalapril]	–	did not induce any significant BP decrease
